# From US20250000870A1, “Pharmaceutical Combinations for Treating Cancer” (Cellestia Biotech AG, priority 2021, published 2025)
# Structures can show the parent of a compound that is named as a salt.
# What was measured:
# Type in all cases: cell-based, Human
# Details in all cases: Drug 2 in combination with 6-(4-(tert-butyl)phenoxy)pyridin-3-amine (Drug 1), 72 hours
# [1] = tested on: MCF-7 ER+ breast cancer cells; experiment: alamarBlue combination screening with 6-(4-(tert-butyl)phenoxy)pyridin-3-amine, ZIP synergy analysis
# Procedure: (§1) The kinase inhibitors listed in table 1 were used in combination with 6-(4-(tert-butyl) phenoxy)pyridin-3-amine.
# (§2) Cells were treated with a combination of 6-(4-(tert-butyl) phenoxy)pyridin-3-amine (concentration range from 150 nM to […]) and chemical compounds listed in table 1 (concentration range from 75 nM to 20 μM) for 72 hours. Concentration range used for each compound was determined based on individual IC50 values i.e concentration range selected flanks IC50 value of each compound. Each of the 8 compounds were combined with 6-(4-(tert-butyl) phenoxy)pyridin-3-amine at different concentrations generating an 8×10 matrix in duplicates, alamarBlue® readout was taken using Infinite® F500 (Tecan) plate reader. All volumes (cells and alamarBlue®) were dispensed using Multidrop Combi dispenser using a standard cassette (Speed MEDIUM).
# (§3) Compound management and dispensing: All compounds were prepared as stock solution at 10 mM in pure DMSO. […] To create 384 well working plates, different volumes of stock solutions were plated into 384 well plates by using ECHO 550 acoustic dispenser (Labcyte) to generate the final concentration of interest for each drug, either alone or in matrix combination.
# (§4) alamarBlue® viability assay: alamarBlue® proliferation assays were performed to determine the growth kinetics of compound treated cells, alamarBlue® consists of a cell permeable substrate resazurin. In metabolically active and proliferating cells, resazurin is converted to resorufin due to an intrinsic reducing power of live cells and produces a red fluorescence. Therefore, production of resorufin serves as an indicator of the viability of the cell population. Proliferation assays were performed by seeding 1500 cells/well in 384 well plate format. Cells were treated in duplicates with pre-determined concentration of compounds as a single agent or in combination with 6-(4-(tert-butyl) phenoxy)pyridin-3-amine for 72 hours. To determine growth kinetics, alamarBlue® (Invitrogen) was added to each well and incubated for 4 hours, alamarBlue® readout was taken using Infinite® F500 (Tecan) plate reader.
# (§5) Data analysis for combination screening: Synergistic interaction analysis was performed using SynergyFinder software as described by Ianevski A, He L, Aittokallio T, Tang J. Bioinformatics. […] To mitigate the impact of edge-effects, correction was applied for all analyses. Regions of interest were defined as concentration combination showing both synergistic interaction and significant absolute activity (>60%).
# [2] = tested on: HCC1187 triple negative breast cancer cells; experiment: as above
# Procedure: as §1, §2, §3, §4, §5
# RPMI-8402 leukemic cells [3] = experiment: as above
# Procedure: as §1, §2, §3, §4, §5
# MV-4-11 leukemic cells = experiment: PrestoBlue combination screening with 6-(4-(tert-butyl)phenoxy)pyridin-3-amine, ZIP synergy analysis
# Procedure: (§6) Cell lines and drug combinations: Human T-ALL, AML and breast cancer cell lines RPMI-8402, MV-4-11 and HCC1187 were cultured under mycoplasma free conditions at 37° C. in RPMI-1640 media supplemented with 10% FCS (RPMI-8402 and HCC1187 cells) and IMDM media supplemented with 10% FCS (MV-4-11 cells). The kinase inhibitors listed in table 5 were used in combination with 6-(4-(tert-butyl) phenoxy)pyridin-3-amine.
# (§7) 6-(4-(tert-butyl) phenoxy)pyridin-3-amine combination screening: Human cancer cells RPMI-8402, MV-4-11 and HCC1187 were seeded at a density of 10′000 cells/well in 96 well plate format and cultured in 100 μl of growth media. Cells were treated with a combination of 6-(4-(tert-butyl) phenoxy)pyridin-3-amine (concentration range from 30 nM to 100 μM) and chemical compounds listed in table 5 (concentration range from 1 μM to 100 μM) for 72 hours. Concentration range used for each compound was determined based on individual IC50 values i.e concentration range selected flanks IC50 value of each compound. Each of the 2 compounds were combined with 6-(4-(tert-butyl) phenoxy)pyridin-3-amine at different concentrations generating an 6×9 matrix in duplicates. PrestoBlue® readout was taken using Sense (Hidex) plate reader.
# (§8) PrestoBlue® viability assay: PrestoBlue® proliferation assays were performed to determine the growth kinetics of compound treated cells. PrestoBlue® consists of a cell permeable substrate resazurin. In metabolically active and proliferating cells, resazurin is converted to resorufin due to an intrinsic reducing power of live cells and produces a red fluorescence. Therefore, production of resorufin serves as an indicator of the viability of the cell population. Proliferation assays were performed by seeding 10′000 cells/well in 96 well plate format. Cells were treated in triplicates (single agent) or duplicates (combinations) with pre-determined concentration of compounds as a single agent or in combination with 6-(4-(tert-butyl) phenoxy)pyridin-3-amine for 72 hours. To determine growth kinetics, PrestoBlue® (Invitrogen) was added to each well and incubated for 4 hours. PrestoBlue® readout was taken using Sense (Hidex) plate reader.
# (§9) Data analysis for combination screening: Synergistic interaction analysis was performed using SynergyFinder software as described by Ianevski A, He L, Aittokallio T, Tang J. Bioinformatics. 2017 Aug. 1;33 (15): 2413-2415. doi: 10.1093/bioinformatics/btx162.SynergyFinder: a web application for analyzing drug combination dose-response matrix data). […] Regions of interest were defined as concentration combination showing both synergistic interaction and significant absolute activity (>60%).
# [4] = tested on: HCC1187 triple negative breast cancer cells; experiment: as above
# Procedure: as §6, §7, §8, §9
# RPMI-8402 leukemic cells [5] = experiment: as above
# Procedure: as §6, §7, §8, §9
SMILES,Conclusion [1],ZIP score [1],Conclusion [2],ZIP score [2],Conclusion (RPMI-8402 leukemic cells [3]),ZIP score (RPMI-8402 leukemic cells [3]),Conclusion (MV-4-11 leukemic cells),Conclusion [4],Conclusion (RPMI-8402 leukemic cells [5]),ZIP score (MV-4-11 leukemic cells),ZIP score [4],ZIP score (RPMI-8402 leukemic cells [5])
"O=C(Nc1c[nH]nc1-c1nc2cc(CN3CCOCC3)ccc2[nH]1)NC1CC1 [AT9283, N-Cyclopropyl-N′-[3-[6-(4-morpholinylmethyl)-1H-benzimidazol-2-yl]-1H-pyrazol-4-yl]-urea]",Synergistic (>0 implies synergistic interaction),8.38,Synergistic (>0 implies synergistic interaction),12.99,Synergistic (>0 implies synergistic interaction),12.40,–,–,–,–,–,–
"CC#CC(=O)N1CCC[C@H]1c1nc(-c2ccc(C(=O)Nc3ccccn3)cc2)c2c(N)nccn12 [Acalabrutinib, 4-[8-amino-3-[(2S)-1-(1-oxo-2-butyn-1-yl)-2-pyrrolidinyl]imidazo[1,5-a]pyrazin-1-yl]-N-2-pyridinyl-benzamide]",Synergistic (>0 implies synergistic interaction),6.86,Synergistic (>0 implies synergistic interaction),3.33,Synergistic (>0 implies synergistic interaction),0.70,–,–,–,–,–,–
"CNC(=O)c1ccccc1Sc1ccc2c(/C=C/c3ccccn3)n[nH]c2c1 [Axitinib, N-Methyl-2-[[3-[(E)-2-pyridin-2-ylethenyl]-1H-indazol-6-yl]sulfanyl]benzamide]",–,–,–,–,–,–,Synergistic (>0 implies synergistic interaction),Synergistic (>0 implies synergistic interaction),Synergistic (>0 implies synergistic interaction),–,–,–
"Cn1c(=O)n(-c2ccc(C(C)(C)C#N)cc2)c2c3cc(-c4cnc5ccccc5c4)ccc3ncc21 [BEZ235, 4-[2,3-dihydro-3-methyl-2-oxo-8-(3-quinolinyl)-1H-imidazo[4,5-c]quinolin-1-yl]-a,a-dimethyl-benzeneacetonitrile]",Synergistic (>0 implies synergistic interaction),17.40,Synergistic (>0 implies synergistic interaction),13.94,Synergistic (>0 implies synergistic interaction),7.20,–,–,–,–,–,–
"C[C@@H](Oc1cc(-c2cnn(C3CCNCC3)c2)cnc1N)c1c(Cl)ccc(F)c1Cl [Crizotinib, 3-[(1R)-1-(2,6-dichloro-3-fluorophenyl)ethoxy]-5-[1-(4-piperidinyl)-1H-pyrazol-4-yl]-2-pyridinamine]",–,–,No (0 implies no interaction),0.10,Synergistic (>0 implies synergistic interaction),2.38,–,–,–,–,–,–
"CC[C@H](Nc1ncnc2[nH]cnc12)c1nc2cccc(F)c2c(=O)n1-c1ccccc1 [Idelalisib, 5-Fluor-3-phenyl-2-{(1S)-1-[(7H-purin-6-yl)amino]propyl}chinazolin-4 (3H)-on]",–,–,–,–,Synergistic (>0 implies synergistic interaction),1.12,–,–,–,–,–,–
"COc1cc2nccc(Oc3ccc(NC(=O)NC4CC4)c(Cl)c3)c2cc1C(N)=O [Lenvatinib, 4-(3-chloro-4-(3-cyclopropylureido)phenoxy)-7-methoxyquinoline-6-carboxamide]",–,–,–,–,–,–,Synergistic (>0 implies synergistic interaction),Synergistic (>0 implies synergistic interaction),Synergistic (>0 implies synergistic interaction),5.9,11.2,41.4
"NC1(c2ccc(-c3nc4ccn5c(=O)[nH]nc5c4cc3-c3ccccc3)cc2)CCC1 [MK-2206, 8-[4-(1-aminocyclobutyl)phenyl]-9-phenyl-1,2,4-triazolo[3,4-f][1,6]naphthyridin-3 (2H)-one, dihydrochloride]",Synergistic (>0 implies synergistic interaction),16.97,Synergistic (>0 implies synergistic interaction),14.89,Synergistic (>0 implies synergistic interaction),8.51,–,–,–,–,–,–
"CO[C@H]1C[C@@H]2CC[C@@H](C)[C@@](O)(O2)C(=O)C(=O)N2CCCC[C@H]2C(=O)O[C@H]([C@H](C)C[C@@H]2CC[C@@H](OC(=O)C(C)(CO)CO)[C@H](OC)C2)CC(=O)[C@H](C)/C=C(\C)[C@@H](O)[C@@H](OC)C(=O)[C@H](C)C[C@H](C)/C=C/C=C/C=C/1C [Temsirolimus, 42-[3-Hydroxy-2-(hydroxymethyl)-2-methylpropanoate]-rapamycin]",Synergistic (>0 implies synergistic interaction),23.81,Synergistic (>0 implies synergistic interaction),23.04,Synergistic (>0 implies synergistic interaction),18.03,–,–,–,–,–,–
"CC(C)c1cc(CNc2nc(Nc3cc(C4CC4)[nH]n3)cc(N3CCN(C)CC3)n2)on1 [XL228, N4-(5-cyclopropyl-1H-pyrazol-3-yl)-N2-[[3-(1-methylethyl)-5-isoxazolyl]methyl]-6-(4-methyl-1-piperazinyl)-2,4-pyrimidinediamine]",Synergistic (>0 implies synergistic interaction),21.86,Synergistic (>0 implies synergistic interaction),23.67,Synergistic (>0 implies synergistic interaction),15.0,–,–,–,–,–,–
